In paper PMC13242511, “Disrupting Notch signalling by a small molecule inhibiting dihydroorotate dehydrogenase activity” (Scientific Reports, 2026):
Like-named read-outs stand apart in the source and are kept apart here.

Experiments:
NOTCH1 = assay: Western blot analysis of S3-cleaved NOTCH1 (a-N1-V1744); type: cell-based; conditions: for V1744 (activated N1) band intensity / V1744 normalised to beta-actin signals / V1744, DMSO as reference: Western blot quantification, Supplemental Figure 4K; for V1744, DMSO as reference: DMSO = 1
Protocol: Cells were washed in ice-cold PBS and incubated for 30 min on ice with RIPA cell lysis buffer (Thermofisher, cat #89900) containing protease and phosphatase inhibitors (Thermofisher, cat #78442), scraped off and homogenized using a 25G syringe, and subsequently centrifugated for 10 min at > 13,000xg. […] After electrophoresis, gels were placed directly onto a TransBlot Turbo PVDF or nitrocellulose membrane (Bio-rad, cat #1704157 and cat #1704159) and transferred using the “HIGH MW” protocol (Bio-Rad). Subsequently, membranes were blocked for 1 h at room temperature using Clear Milk Blocking Buffer (ThermoFisher, cat #37587) supplemented with 0.1% Tween20 (Sigma-Aldrich, cat #P1379). Detection of antibody binding was performed by using Clarity Western ECL-Substrate (Bio-rad, cat #1705060S). Beta-Actin protein signals were used as a loading control. Western blot membranes were in some experiments stripped after development (indicated in the figure in each respective case) by washing the membranes twice for 10 min in PBS, followed by incubation in membranes in western blot stripping buffer (ThermoFisher, cat #21059) for 30 min at room temperature and gentle agitation. Stripped membranes were washed twice with PBS and incubated for 30 min in blocking buffer before incubation with primary antibody. A list of all antibodies used in this study is provided in Supplemental Table 6. Uncropped western blot images are provided in […]. Protein expression levels of western blot bands were quantified using Fiji (V.2.16) with beta-Actin signals for normalisation (Supplemental Table 8). Uncropped western blot images are provided in Supplemental Fig. 10.

TALL-1 cells = assay: Growth inhibition, metabolic activity (CellTiter-Glo); type: cell-based; conditions: Homo sapiens; TALL-1, six days; read-out: approximated IC50, growth (metabolic activity)
Source text: (§1) We next investigated whether compounds A-E affected growth and viability of cell lines from T-cell acute lymphoblastic leukaemia (T-ALL) and breast cancer, two tumour types in which elevated Notch signalling has been implicated in tumorigenesis. […] When testing analogues of compounds B and C, five of the seven B analogues and one of the two C analogues produced dose–response curves and IC50s, which however were higher compared to the original hits (Supplemental Fig. 5A; IC50s are presented in Supplemental Table 6).
(§2) Compounds were spotted on white 384-well tissue culture plates (Greiner, cat #781080) using an Echo 525 Acoustic liquid handler (Labcyte). Cells were grown to 80% confluence, detached if required, counted and 20 µl containing 2000–4000 cells per well was then seeded in each well and cultivated for three (4,000 cells seeded) and six days (2,000 cells seeded). […] Luciferase activity (reading out metabolic activity) was determined using the CellTiter-Glo 2.0 kit (CTG, Promega, cat #G9242) following the manufacturer’s instructions and luminescence was measured on a SpectraMaxi3 or Varioscan plate reader (Molecular Devices, Thermofisher).

JURKAT cells = assay: as above; type: cell-based; conditions: Homo sapiens, six days, read-out: approximated IC50, growth (metabolic activity)
Source text: as §1, §2

RPMI-8402 cells = assay: as above; type: cell-based; conditions: Homo sapiens; RPMI-8402, six days; read-out: approximated IC50, growth (metabolic activity)
Source text: as §1, §2

HEK293T cells = assay: as above; type: cell-based; conditions: six days, Supplemental Fig. 5E
Protocol: We also tested three analogues to compound B and one analogue to compound C. […] To assess the effects of compound A-E in a cell line with very low levels of Notch signalling we repeated the growth inhibition assay in HEK293T cells.
as §2

DHODH = biological target: T1, DHODH (Homo sapiens, UniProt Q02127); assay: DHODH enzyme activity assay (Resorufin fluorescence, Reaction Biology); type: biochemical
T1 construct: purchased Reaction Biology (contract assay)
Protocol: DHODH enzyme activity was determined via fluorescence-based quantification (Resorufin fluorescence as endpoint measurement) at Reaction Biology. Reference compound BAY2402234 was measured in singletons in two biological replicates and compounds were measured in technical replicates within the indicated dose-ranges. Values were normalized to DMSO control and dose–response curves were fitted using the log(inhibitor) versus response – Variable slope (model: Y = Bottom + (Top–Bottom)/(1 + 10^((LogIC50-X)*HillSlope)) equation.

[1] = test system: mNotch1ΔE fused to an HiBiT tag; assay: HiBit reporter assay; type: cell-based, mouse; parameters: key to protein stability: + indicates that the compound had an effect; -: − indicates that there was no significant effect in the respective assay; conditions: for protein stability: summary Fig. 8E
Protocol: The Notch1ΔE construct used to generate the Notch reporter cell line (see above) was first cloned in frame into the pBiT3.2-C [TK/HiBiT/Blast] Vector (Promega) and then stably introduced into HEK293T wild type cells, using Lipofectamine transfection, as described. Analogous to the Notch reporter cell line, Blasticidin was used as a selection marker (0.1 mg/ml) and stable cell lines with robust luciferase signals were generated. […] A clone (#D2) with an empty HiBit vector stably integrated was used as control.
20 µl containing 4,000 cells were seeded on 384-well pre-spotted compound plates (Greiner, cat #781080). Cells were incubated for 24 h and viability was determined using CellTiter-Fluor (Promega, cat # G6080), following the manufacturer’s instructions. Next, cells were subjected to the HiBit assay according to the manufacturer’s instructions (Promega, cat # N3030). Prior to cell lysis, the tissue culture plates were allowed to cool down to room temperate. Fluorescence and luminescence signals were recorded using a SpectraMax i3 (Molecular devices) and signals were read at different time-points to determine optimal signal stability. Cells cultivated only with DMSO were used as a reference to determine effects of compounds. MG132, Bafilomycin A1 and the GSI RO4929097 served as additional controls. Celastrol was used to determine the assay window, and a minimum of two technical replicates were measured per assay.

MDA-MB-468 cells = assay: Growth inhibition, metabolic activity (CellTiter-Glo); type: cell-based; conditions: Homo sapiens; MDA-MB-468, six days; read-out: approximated IC50, metabolic activity
Source text: as §1, §2

[2] = Fig. 7B, read-out: IC50s DHODH assay: IC50
[3] = dose-range [M] 4.00E-05- 2.03E-09, 3 steps
[4] = dose-range [M] 4.00E-05- 2.03E-09, 3 steps, read-out: IC50

T1 sequence (Q02127 whole entry): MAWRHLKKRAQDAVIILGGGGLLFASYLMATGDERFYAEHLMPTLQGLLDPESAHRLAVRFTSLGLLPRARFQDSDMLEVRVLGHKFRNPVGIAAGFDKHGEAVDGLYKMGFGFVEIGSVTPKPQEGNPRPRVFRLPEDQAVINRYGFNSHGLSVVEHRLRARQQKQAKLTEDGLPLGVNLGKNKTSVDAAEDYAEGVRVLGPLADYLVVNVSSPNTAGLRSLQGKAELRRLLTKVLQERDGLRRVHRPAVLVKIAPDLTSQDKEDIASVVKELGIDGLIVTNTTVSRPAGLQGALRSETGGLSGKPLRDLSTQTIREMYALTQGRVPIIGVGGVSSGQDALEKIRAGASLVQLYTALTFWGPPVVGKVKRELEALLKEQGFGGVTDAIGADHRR

SMILES | V1744 (activated N1) band intensity (NOTCH1) | V1744 normalised to beta-actin signals (NOTCH1) | V1744, DMSO as reference (NOTCH1) | IC50 (TALL-1 cells) | IC50 (JURKAT cells) | IC50 (RPMI-8402 cells) | S3-processing of Notch1ΔE (Western blot) (NOTCH1; clone A (#A1-11), Fig. 1F) | growth inhibitory effect (HEK293T cells) | IC50s DHODH assay: Hill-Slope (DHODH; Fig. 7B) | IC50 (DHODH; [2]) | Hill-slope (DHODH; [3]) | IC50 (DHODH; [4]) | protein stability [1] | IC50 (MDA-MB-468 cells) | DHODH enzyme activity (in words) (DHODH; Fig. 7B) | IC50s DHODH assay: IC50 (DHODH; Fig. 7B) | IC50 (DHODH; broader dose range, Fig. 7D, read-out: IC50, relative DHODH activity) | LogIC50 (DHODH; [3]) | DHODH assay (DHODH; overview in comparison to compound C, Supplemental Fig. 9) | HiBiT luciferase signal ([1]; 24 h, 14-point dose-response, Supplemental Fig. 8D,G)
CC(C)(C)c1ccc(Oc2ccc(N)cn2)cc1 [CB-103, reference compound] | 20841.8 | 0.8 | 0.6093 | 300 nM | 1700 nM | 900 nM |  |  |  |  |  |  |  |  |  |  |  |  |  | 
C[C@H](NC(=O)Cc1cc(F)cc(F)c1)C(=O)N[C@H](C(=O)OC(C)(C)C)c1ccccc1 [DAPT, reference compound] |  |  |  |  |  |  | almost completely abolished |  |  |  |  |  |  |  |  |  |  |  |  | 
CC(C)(C(=O)NCC(F)(F)C(F)(F)F)C(=O)N[C@@H]1C(=O)Nc2ccccc2-c2ccccc21 [RO4929097, reference compound] | 4624.07 | 0.211 | 0.1638 |  |  |  |  |  |  |  |  |  |  |  |  |  |  |  |  | 
CCc1c(C(=O)N(C)Cc2cnn(C(C)C)c2)[nH]c2ccccc12 [compound A] | 20296.9 | 1.0 | 0.806 |  |  |  |  | did not exert a growth inhibitory effect | -4.5 | 2.86e-05 M | -4.5 | 2.9e-05 M | - |  |  |  |  |  |  | 
Cc1ccc2[nH]c3c(c2c1)CCOC31CCN(Cc2ccccc2-c2ccccc2)CC1 [compound B] | 10802.4 | 0.6 | 0.4585 | 6700 nM | 300 nM | 500 nM |  |  | -5.7 | 2.2e-06 M | -5.7 | 2.2e-06 M | + | 1100 nM |  |  |  |  |  | 
COc1cccc(CNc2ccc(N3CCCCC3)cc2)c1OCc1cccs1 [compound C] | 14466.8 | 0.8 | 0.5945 |  | 4300 nM | 600 nM |  |  | -15.6 |  | -15.5 |  | + | 1700 nM | appeared to reduce DHODH enzyme activity across the dose response range | indeterminate | 1.01e-08 M | Unstable | active | dose-dependent decrease of luciferase signal
NC(=O)c1c(NC(=O)NCc2cccnc2)sc2c1CCC2 [compound D] | 30696.5 | 1.2 | 0.9101 |  |  |  |  | did not exert a growth inhibitory effect | -5.0 |  | -5.0 | 9.6e-06 M | - |  |  |  |  |  |  | 
Cc1nn(-c2nc3ccccc3s2)c(O)c1C1OC(=O)c2ccccc21 (centres unmarked) [compound E] | 44303.5 | 1.9 | 1.451 |  |  |  |  | did not exert a growth inhibitory effect | -4.4 |  | -4.4 | 3.7e-05 M | - |  |  |  |  |  |  | 
